According to PMC11768932, “Pharmacokinetic Evaluation of Neutral Sphinghomyelinase2 (nSMase2) Inhibitor Prodrugs in Mice and Dogs” (Pharmaceutics, 2024):
Values joined by “and” are separate entries in the source; they are usually repeats but may differ in a detail not shown here. Equal values may be shown once. Where a name gives a salt, the structure may show the parent alone. Read-outs that look alike come from different tables or passages of the source.

Columns and labels:
[1] = design: method as in PMID 30531925, PMID 30921693; conditions: cited from earlier work
[2] = design: method as in PMID 35930706; conditions: cited from earlier work; for Cmax / Tmax / t(1/2) / AUC0–t: released DPTIP in plasma, CES1−/− mice, PO 10 mg/kg DPTIP or equivalent, previously published
[3] = In vitro stability in dog plasma; format: in vitro ADME; conditions: 37 °C; for remaining at 1 h, 10 μM: dog, 60 min, read-out: In Vitro Stability in Plasma (% Remaining at 60 min) Mean ± SEM (n = 3), Dogs; for In Vitro Stability in Plasma (% Remaining at 60 min) Mean ± SEM (n = 3), Dogs: 10 μM
Experimental: (§1) The in vitro metabolic stability analysis of DPTIP prodrugs was performed in the plasma of mice, dogs, and humans, as previously described. Briefly, for plasma stability, 1 mL of plasma was spiked with 10 μM of the respective prodrug followed by incubation in an orbital shaker at 37 °C for 1 h (in triplicate). The samples from each incubation at predetermined time points (0 and 60 min) was quenched with 3× volume of acetonitrile containing the internal standard (IS; losartan: 0.5 μM). The samples were vortex-mixed for 30 s and centrifuged at 10,000× g for 10 min at 4 °C. Compound disappearance over time was monitored via a Dionex ultra-high-performance LC system coupled with a Q Exactive Focus orbitrap mass spectrometer (Thermo Fisher Scientific Inc., Waltham, MA, USA). Quantification of the prodrugs was performed in full scan mode (from m/z 75 to 1125) by comparing t = 0 min samples with t = 60 min samples.

[4] = In vitro stability in human plasma; format: in vitro ADME; conditions: 37 °C; for remaining at 1 h, 10 μM: human, 60 min, read-out: In Vitro Stability in Plasma (% Remaining at 60 min) Mean ± SEM (n = 3), Humans; for In Vitro Stability in Plasma (% Remaining at 60 min) Mean ± SEM (n = 3), Humans: 10 μM
Experimental: as §1

[5] = tested on: nSMase2; conditions: cited from earlier work
[6] = Pharmacokinetic study in dogs, released DPTIP in plasma after IV or peroral dose; format: in vivo, male Beagle dogs
Experimental: The PK studies in dogs were performed in accordance with the guidelines recommended by Pharmaron (San Diego, CA, USA) Institutional Animal Care and Use Committee. Briefly, male Beagle dogs 9 to 11 kg were obtained from the test facility’s colony of non-naïve animals. The animals were fasted overnight prior to dose administration and fed 4 h after dosing. The body weights were recorded and the animals were dosed with DPTIP, and prodrugs 2, 3, 4, 6, 7, 8, and 9 at 2 mg/kg equivalent of DPTIP as a single preoral dose PO (n = 2) with the exception of DPTIP IV dosed at 1 mg/kg (n = 1). All drugs were dissolved in the formulations (5% NMP, 5% Kolliphor, 30% PEG, and 60% water v/v) made freshly prior to dosing. The blood samples were collected via a cephalic vein at specified time points (0.083, 0.25, 0.5, 1, 2, 4, 6, 8, and 24 h) post-drug administration, and transferred into tubes containing sodium fluoride as a stabilizer (10 µL/mL of 500 µg/mL). The tubes were stored on wet ice until processed to plasma by centrifugation (3500× g at 4 °C for 10 min) within 30 min of collection. The plasma samples were transferred into individually labeled matrix tubes and stored at nominal −80 °C immediately (within 10 min of separation) until bioanalysis.
The quantification of the released DPTIP was performed using our previously published method with minor modifications. Briefly, calibration standards were prepared by spiking the DPTIP into naïve plasma from mice and dogs. All the calibration curves were constructed in the range of 1–3000 pmol/mL in the naïve sample-matched matrices in both the mouse and dog samples. Linear regression with 1/(nominal concentration) weighting factor was used for fitting the calibration curve. A correlation coefficient greater than 0.99 was considered acceptable in the analytical runs for all analyses.
The plasma samples from both mice and dogs were processed through simple protein precipitation. For this, 20 µL of plasma was mixed with 100 µL methanol containing 0.5 µM losartan (internal standards; IS) in low retention microcentrifuge tubes. All samples were vortex-mixed and centrifuged at 16,000× g for 5 min at 4 °C. A 50 µL of aliquot of supernatant was diluted with 50 µL of LC-MS water transferred to a 96-well polypropylene autosampler sealed with a Teflon cap. A volume of 2 µL was injected onto the ultra-performance liquid chromatography instrument for quantitative analysis using a temperature-controlled autosampler operating at 4 °C. Chromatographic separation was performed using a Thermo Scientific Vanquish ultra-high-performance system consisting of an analytical pump and coupled with a TSQ Altis mass spectrometer. The analytes were separated using an Agilent Eclipse Plus column (100 × 2.1 mm i.d, 1.8 μm) maintained at 35 °C. The (M+H)^+ ion transition of DPTIP (m/z 378.85 → 363.07, 200.05) and losartan (IS) (m/z 423.2 → 207.10, 180.88) were used. A gradient method was used with a mobile phase composition of 0.1% formic acid in acetonitrile and 0.1% formic acid in water.
The plasma concentrations (pmol/mL) for the mice were quantified, and plots of mean plasma concentration versus time were constructed using GraphPad Prism (10.3.0). Similarly, plasma concentrations (pmol/mL) for the dogs were measured and corresponding mean plasma concentration versus time plots were generated. The plasma concentrations in both mice and dogs were analyzed using a noncompartmental analysis method as implemented in the computer software program Phoenix WinNonlin version 8.4 (Certara USA Inc., Princeton, NJ, USA). The maximum plasma concentration (Cmax) and time to Cmax (Tmax) were the observed values. The area under the plasma concentration–time curve (AUC) values were calculated to the last quantifiable sample (AUC0–t) using the log-linear trapezoidal rule. The oral bioavailability was calculated by AUCPO divided by AUC IV with dose normalization. […]

[7] = tested on: rat brain nSMase2; design: method as in PMID 33395289; conditions: cited from earlier work
[8] = Pharmacokinetic study in CES1−/− mice, released DPTIP in plasma after peroral dose; format: in vivo, C57BL/6 CES1−/− mice; conditions: PO 10 mg/kg DPTIP equivalent
Experimental: In vivo mice PK studies were carried out as previously described. Briefly, mice PK studies were carried out in CES1^−/− mice according to protocols approved by the Animal Care and Use Committee at Johns Hopkins University. The C57BL/6 CES1^−/^− mice were received from the United States Army Medical Research Institute of Chemical Defense, Maryland, and maintained on a 12 h light−dark cycle with ad libitum access to food and water. Prodrugs 3, 4, 5, 6, 8, and 9 were administered at a dose of 10 mg/kg equivalent of DPTIP to CES1^−/− mice as a single peroral (PO) dose made fresh in formulation (5% DMSO, 10% tween, and 85% saline v/v/v) prior to dosing. […]
The quantification of the released DPTIP was performed using our previously published method with minor modifications. […]
The plasma samples from both mice and dogs were processed through simple protein precipitation. […] A volume of 2 µL was injected onto the ultra-performance liquid chromatography instrument for quantitative analysis using a temperature-controlled autosampler operating at 4 °C. […]
The plasma concentrations (pmol/mL) for the mice were quantified, and plots of mean plasma concentration versus time were constructed using GraphPad Prism (10.3.0). Similarly, plasma concentrations (pmol/mL) for the dogs were measured and corresponding mean plasma concentration versus time plots were generated. […]

[9] = design: method as in PMID 35930706; conditions: CES1−/− mouse plasma, 10 μM, 37 °C, previously published; cited from earlier work
[10] = In vitro stability in mouse plasma; format: in vitro ADME; conditions: CES1−/−, 37 °C, 60 min, read-out: In Vitro Stability in Plasma (% Remaining at 60 min) Mean ± SEM (n = 3), Mice
Experimental: as §1

[11] = design: method as in PMID 8593015; conditions: valine ester prodrug, transport via PEPT1 in the intestine; cited from earlier work

COc1cc(-c2nc(-c3cccs3)c(-c3ccccc3)[nH]2)cc(OC)c1O [DPTIP, 2,6-dimethoxy-4-(5-phenyl-4-(thiophen-2-yl)-1H-imidazol-2-yl)-phenol]
half-life (t1/2) ([1]; as given in abstract): ≤ 0.5 h
half-life ([1]; mice): < 0.5 h
oral bioavailability (%F) ([1]; mice): < 5%
Cmax [2]: 307 ± 93.9 nM
Tmax [2]: 0.25 h
t(1/2) [2]: 0.46 h
remaining at 1 h, 10 μM [3]: > 90%
remaining at 1 h, 10 μM [4]: > 90%
IC50 [5]: 30 nM
t(1/2) ([6]; IV 1 mg/kg (n = 1), 1 mg/kg): 3.71 h
clearance ([6]; male, Beagle, dog, plasma, IV 1 mg/kg, read-out: clearance (CL)): 12 mL/min/kg
C0 ([6]; male, Beagle, dog, plasma, IV 1 mg/kg, read-out: initial plasma concentration (C0)): 2500 nM
Vd ([6]; male, Beagle, dog, plasma, IV 1 mg/kg, read-out: volume of distribution (Vd)): 3.8 L/kg
half-life ([6]; male, Beagle, dog, plasma, iv, 1 mg/kg, IV 1 mg/kg (n = 1)): 3.7 h
AUC(0-t) ([6]; male, Beagle, dog, plasma, iv, 1 mg/kg, IV 1 mg/kg, read-out: exposures (AUC0–t)): 3.9 µM·h
Cmax ([6]; male, Beagle, dog, plasma, iv, 1 mg/kg, IV 1 mg/kg, read-out: maximum plasma concentration (Cmax)): 2400 nM
AUC(0-t) ([6]; male, Beagle, dog, plasma, iv, 1 mg/kg, IV 1 mg/kg, value dose adjusted to 2 mg/kg, read-out: AUC0–t): 7.81 µM·h
Cmax ([6]; male, Beagle, dog, plasma, iv, 1 mg/kg, IV 1 mg/kg, value dose adjusted to 2 mg/kg, read-out: Cmax): 4800 nM

O=C(/C=C/c1ccc(/C=C/C(=O)Nc2ccc(C3=NCCN3)cc2)cc1)Nc1ccc(C2=NCCN2)cc1 [GW4869]
IC50 [7]: 1000 nM

COc1cc(-c2nc(-c3ccccc3)c(-c3cccs3)[nH]2)cc(OC)c1OC(=O)N1CCC(N2CCCCC2)CC1 [Prodrug 2]
AUC0–t [2]: 273 ± 36.8 pmol·h/mL
Cmax [2]: 149 ± 9.9 nM
Tmax [2]: 1 h
t(1/2) [2]: 1.4 h
remaining at 1 h, 10 μM [3]: > 90%
remaining at 1 h, 10 μM [4]: > 90%

CCCCCC(=O)Oc1c(OC)cc(-c2nc(-c3ccccc3)c(-c3cccs3)[nH]2)cc1OC [Prodrug 3]
In Vitro Stability in Plasma (% Remaining at 60 min) Mean ± SEM (n = 3), Dogs [3]: 62.9 ± 7.2%
remaining at 1 h, 10 μM [3]: ~60%
In Vitro Stability in Plasma (% Remaining at 60 min) Mean ± SEM (n = 3), Humans [4]: 79.3 ± 1.4%
remaining at 1 h, 10 μM [4]: ~80%
fold increase in DPTIP half-life compared to DPTIP [8]: no significant improvement

COc1cc(-c2nc(-c3ccccc3)c(-c3cccs3)[nH]2)cc(OC)c1OC(=O)N(C)C [Prodrug 4]
remaining at 1 h, 10 μM [3]: > 90%
remaining at 1 h, 10 μM [4]: > 90%

CCCCCN(C)C(=O)Oc1c(OC)cc(-c2nc(-c3ccccc3)c(-c3cccs3)[nH]2)cc1OC [Prodrug 5]
In Vitro Stability in Plasma (% Remaining at 60 min) Mean ± SEM (n = 3), Mice [9]: 59.9 ± 5.8 %
In Vitro Stability in Plasma (% Remaining at 60 min) Mean ± SEM (n = 3), Dogs [3]: 49.5 ± 1.0%
remaining at 1 h, 10 μM [3]: 40 to 77%
In Vitro Stability in Plasma (% Remaining at 60 min) Mean ± SEM (n = 3), Humans [4]: 42.3 ± 2.1%
remaining at 1 h, 10 μM [4]: 40 to 77%

COc1cc(-c2nc(-c3ccccc3)c(-c3cccs3)[nH]2)cc(OC)c1OCOP(=O)(O)O [Prodrug 6]
remaining at 1 h, 10 μM [3]: > 90%
remaining at 1 h, 10 μM [4]: > 90%
fold increase in DPTIP half-life compared to DPTIP [8]: no significant improvement

CCC1CC(N2CCCCC2)CC(CC)N1C(=O)Oc1c(OC)cc(-c2nc(-c3ccccc3)c(-c3cccs3)[nH]2)cc1OC (centres unmarked) [Prodrug 7]
fold increase in DPTIP plasma exposure (AUC0–t) compared to DPTIP ([2]; mice, PO): > 4 fold and 4 fold
AUC0–t [2]: 1047 ± 101 ^α pmol·h/mL
Cmax [2]: 191 ± 39.6 nM
Tmax [2]: 2 h
t(1/2) [2]: 2.7 h
remaining at 1 h, 10 μM [3]: > 90%
remaining at 1 h, 10 μM [4]: > 90%

COc1cc(-c2nc(-c3ccccc3)c(-c3cccs3)[nH]2)cc(OC)c1OC(=O)[C@@H](N)C(C)C [Prodrug 8, 2,6-Dimethoxy-4-(4-phenyl-5-(thiophen-2-yl)-1H-imidazol-2-yl) phenyl L-valinate hydrochloride]
remaining at 1 h, 10 μM [3]: ~0%
remaining at 1 h, 10 μM [4]: ~0%

COc1cc(-c2nc(-c3ccccc3)c(-c3cccs3)[nH]2)cc(OC)c1OC(=O)[C@@H](NC(=O)[C@@H](N)C(C)C)C(C)C [Prodrug 9]
remaining at 1 h, 10 μM [10]: 40 to 77%
In Vitro Stability in Plasma (% Remaining at 60 min) Mean ± SEM (n = 3), Dogs [3]: 76.3 ± 1.8%
In Vitro Stability in Plasma (% Remaining at 60 min) Mean ± SEM (n = 3), Humans [4]: 76.4 ± 1.4%

CC(C)[C@H](N)C(=O)OCCOCn1cnc2c(=O)[nH]c(N)nc21 [valacyclovir]
fold increase in oral bioavailability [11]: 3–5 fold
